Key:
Type in all cases: cell-based
[1] = tested on: Rhizopus oryzae NBRC 4785; assay: Evaluation of ability to produce lactic acid-2, strain NBRC 4785; conditions: 0.5% (w/v) at spore germination, control of the strain without surfactant = 100
Procedure: (§1) (1) Spore suspensions were prepared in the same way as in Production Example 1 using Rhizopus oryzae NBRC 4707, NBRC 4785, NBRC 5384 (=JCM14625), and NBRC 5418 strains obtained from a culture collection NBRC.
(§2) (2) Mycelia were prepared from the spores of each strain under the same conditions as in Production Example 2 involving stirring at 100 rpm using 60 mL of a PDB medium non-supplemented or supplemented with 0.5% (w/v) (final concentration) of the surfactant sorbitan monolaurate (Rheodol(R) SP-L10, manufactured by Kao Corp.).
(§3) (3) The total amount of the fungus bodies obtained in (2) was inoculated to 100 mL of an inorganic culture medium under the same conditions as in Production Example 3 to grow the mycelia. […]
(§4) 30 g of the prepared wet fungus bodies of each strain of the genus Rhizopus was inoculated to 100 mL of an inorganic culture medium for lactic acid production evaluation (composition: 12.5% glucose, 0.1% ammonium sulfate, 0.06% potassium dihydrogen phosphate, 0.025% magnesium sulfate heptahydrate, 0.009% zinc sulfate heptahydrate, and 6.25% calcium carbonate; all the concentrations mean % (w/v)) applied to a 500-mL Erlenmeyer flask, and then cultured at 33.5° C. with stirring at 170 rpm. The production rate of lactic acid was determined by the same procedures as in Test Example 2. […]

[2] = tested on: Rhizopus oryzae NBRC 5418; assay: Evaluation of ability to produce lactic acid-2, strain NBRC 5418; conditions: 0.5% (w/v) at spore germination, control of the strain without surfactant = 100
Procedure: as §1, §2, §3, §4

[3] = tested on: Rhizopus oryzae JCM14625 strain (=NBRC 5384); assay: Evaluation of ability to produce lactic acid-3 (surfactant concentration in the spore germination medium); conditions: no surfactant = 100
Procedure: (1) 200 mL of a PDB medium non-supplemented or supplemented with 0.01, 0.05, 0.25, 0.50, 1.0, 1.5, or 2.5% (w/v) (final concentration) of sorbitan monolaurate (Rheodol(R) SP-L10, manufactured by Kao Corp.) was applied to a 500-mL baffled Erlenmeyer flask (manufactured by Asahi Glass Co., Ltd.). The Rhizopus oryzae spore suspension prepared in Production Example 1 was inoculated thereto at a dose of 1×10^3 spores/mL of the medium and then cultured at 27° C. for 3 days with stirring at 110 rpm.
(2) The cultures were filtered through a filter support and a nylon net filter of 180 μm mesh size (manufactured by EMD Millipore) sterilized in advance to recover fungus bodies onto the filter. From 2.0 to 3.0 g of the recovered fungus bodies was inoculated to 100 mL of an inorganic culture medium (composition: 10% glucose, 0.1% ammonium sulfate, 0.06% potassium dihydrogen phosphate, 0.025% magnesium sulfate heptahydrate, 0.009% zinc sulfate heptahydrate, and 5.0% calcium carbonate; all the concentrations mean % (w/v)) applied to a 500-mL Erlenmeyer flask, and then cultured at 27° C. for approximately 40 hours with stirring at 220 rpm.
(3) Control conditions in the absence of the surfactant involved culturing spores with stirring by the same procedures as in (1) using a PDB medium non-supplemented with the surfactant and then inoculating from 4 to 8 mL of the PDB seed culture medium to 100 mL of the inorganic culture medium by the same procedures as in (2), followed by culture.
(4) Subsequently, the cultures thus obtained by culture in the inorganic culture medium were filtered through a filter support and a nylon net filter of 180 μm mesh size (manufactured by EMD Millipore) sterilized in advance to recover fungus bodies onto the filter. On this filter, the fungus bodies were further washed with from 50 to 200 mL of saline to obtain fungus bodies.
30 g of the prepared wet fungus bodies of the genus Rhizopus was inoculated to 100 mL of an inorganic culture medium for lactic acid production evaluation (composition: 12.5% glucose, 0.1% ammonium sulfate, 0.06% potassium dihydrogen phosphate, 0.025% magnesium sulfate heptahydrate, 0.009% zinc sulfate heptahydrate, and 6.25% calcium carbonate; all the concentrations mean % (w/v)) and then cultured at 33.5° C. with stirring at 170 rpm. The fungus body-free supernatant of the culture medium was recovered every 1 hour from 30 minutes after the fungus body inoculation. Glucose and lactic acid were quantified by the procedures described later in Reference Example 1. A relative value of the production rate of lactic acid was determined on the basis of the calculation method described in Reference Example 2.
The concentration of lactic acid (unit: g of lactic acid/L of medium) in the supernatant sample of each culture medium was measured according to Reference Example 1 and divided by a time (unit: hr) required for change in lactic acid concentration to calculate the production rate of lactic acid per unit time (unit: g of lactic acid/L/hr). In addition, a relative value to the production rate of lactic acid under control conditions in each Production Example was determined.

[4] = tested on: fungus of the genus Rhizopus; assay: Evaluation of ability to produce lactic acid by repetitive use of fungus body; conditions: 0.5% (w/v) at germination, relative to control without surfactant in the first repetition
Procedure: Mycelia of a fungus of the genus Rhizopus were prepared in a medium non-supplemented with or containing 0.5% (w/v) (final concentration) of the surfactant sorbitan monolaurate (Rheodol(R) SP-L10) by the same procedures as in Test Example 4(2) and then cultured by the same procedures as in Test Example 4(3). The obtained fungus bodies were recovered by the same procedures as in Test Example 5(4). Subsequently, 25 g of the wet fungus bodies was cultured for 4 hours in an inorganic culture medium for lactic acid production evaluation by the same procedures as in Test Example 5. The production rate of lactic acid was determined. The same procedures of fungus body recovery and culture were repeated, and the production rate of lactic acid was determined at each run (the number of repetitions: 3). The production rate of lactic acid at each run was calculated as a relative value to the production rate of lactic acid under the control conditions (in the absence of the surfactant) in the first repetition. The concentration of lactic acid (unit: g of lactic acid/L of medium) in the supernatant sample of each culture medium was measured according to Reference Example 1 and divided by a time (unit: hr) required for change in lactic acid concentration to calculate the production rate of lactic acid per unit time (unit: g of lactic acid/L/hr). In addition, a relative value to the production rate of lactic acid under control conditions in each Production Example was determined.

Substance: Sorbitan monolaurate
- Production rate of lactic acid (relative value) [1]: 170 relative value
- Production rate of lactic acid (relative value) [2]: 135 relative value
- Production rate of lactic acid (relative value) ([3]; 0.01% w/v in germination medium): 119 relative value
- Production rate of lactic acid (relative value) ([3]; 0.05% w/v in germination medium): 133 relative value
- Production rate of lactic acid (relative value) ([3]; 0.25% w/v in germination medium): 116 relative value
- Production rate of lactic acid (relative value) ([3]; 0.50% w/v in germination medium): 138 relative value
- Production rate of lactic acid (relative value) ([3]; 1.00% w/v in germination medium): 140 relative value
- Production rate of lactic acid (relative value) ([3]; 1.50% w/v in germination medium): 117 relative value
- Production rate of lactic acid (relative value) ([3]; 2.50% w/v in germination medium): 98 relative value
- Production rate of lactic acid (relative value) ([4]; repetition 1): 173 relative value
- Production rate of lactic acid (relative value) ([4]; repetition 2): 170 relative value
- Production rate of lactic acid (relative value) ([4]; repetition 3): 167 relative value
